These results are taken from patent US20240368125A1, “NOVEL PYRAZINYL-TRIAZOLE COMPOUNDS AS PESTICIDES” (Bayer Aktiengesellschaft, priority 2021, published 2024).

Structures are written as SMILES.

Assay type in all cases: in vivo
Data set [1] concerns Rhipicephalus (Boophilus) microplus larvae (strain Parkhurst, resistant against synthetic pyrethroids). Nature of the data set: Rhipicephalus (Boophilus) microplus in-vitro contact test, larval cattle tick. As to conditions: 1 μg/cm^2 (=100 g/ha), after 48 hours; for pest or weed control at 1 µg/cm2: Rhipicephalus microplus, read-out: efficacy (larvae dead or moribund). On the procedure: Rhipicephalus (Boophilus) Microplus—In-Vitro Contact Tests Larval Cattle Tick (Strain Parkhurst, Resistant Against Synthetic Pyrethroids
(§1) 9 mg compound is solved in 1 mL acetone and diluted with acetone to the desired concentration. 250 μL of the test solution is filled in 25 mL glass test tubes and homogeneously distributed on the inner walls by rotation and tilting on a shaking device (2 h at 30 rpm). With a compound concentration of 900 ppm, an inner surface of 44.7 cm^2 and a homogeneous distribution, a dose of 5 μg/cm^2 is achieved.
After the solvent has evaporated, each test tube is filled with 20-50 cattle tick larvae (Rhipicephalus microplus), closed with a perforated lid and incubated in a horizontal position at 85% relative humidity and 27° C. in an incubator. After 48 hours efficacy is determined. The larvae are patted on the ground of the tubes and negative geotactic behavior is recorded.

Data set [2] concerns adult brown dog ticks (Rhipicephalus sanguineus). Nature of the data set: Rhipicephalus sanguineus in-vitro contact test, adult brown dog ticks. As to conditions: Rhipicephalus sanguineus; 1 μg/cm^2 (=100 g/ha), after 48 hours; read-out: efficacy (ticks dead or moribund). As for the experimental part: Rhipicephalus sanguineus—In-Vitro Contact Tests with Adult Brown Dog Ticks
as §1
After the solvent has evaporated, each test tube is filled with 5-10 adult brown dog ticks (Rhipicephalus sanguineus), closed with a perforated lid and incubated in a lying position at room temperature and relative humidity. After 48 hours efficacy is determined. The ticks are patted on the ground of the tubes and are incubated on a heating plate at 45-50° C. for at most 5 minutes. Immotile or uncoordinated moving ticks, which are not able to escape the heat by climbing upwards, are marked as dead or moribund.
An efficacy of 100% means all ticks are dead or moribund; 0% means no ticks are dead or moribund.

Data set [3] has as its system larvae of the banded cucumber beetle (Diabrotica balteata). Nature of the data set: Diabrotica balteata spray test. Conditions: Diabrotica balteata, 168 h; 100 g/ha (=32 μg/well), wheat seeds, after 7 days; read-out: efficacy (seedlings grown). As for the experimental part:
Diabrotica balteata—Spray Test
(§2) Solvent: 78.0 parts by weight of acetone • • 1.5 parts by weight of dimethylformamide
(§3) Emulsifier: alkylarylpolyglycol ether
(§4) To produce a suitable preparation of active compound, 1 part by weight of active compound is mixed with the stated amount of solvent, and the concentrate is diluted with water, containing an emulsifier concentration of 1000 ppm, to the desired concentration. Further test concentrations are prepared by dilution with emulsifier containing water.
Soaked wheat seeds (Triticum aestivum) are placed in a multiple well plate filled with agar and some water and are incubated for 1 day to germinate (5 seeds per well). The germinated wheat seeds are sprayed with a test solution containing the desired concentration of the active ingredient. Afterwards each unit is infected with 10-20 larvae of the banded cucumber beetle (Diabrotica balteata).
After 7 days efficacy in % is determined. 100% means all the seedlings have grown up like in the untreated, uninfected control; 0% means none of the seedlings have grown.

The subject of data set [4] is larvae of the southern green stink bug (Nezara viridula). Nature of the data set: Nezara viridula spray test. As to conditions: for mortality at 500 g/ha: Nezara viridula, in Hordeum vulgare, 96 h; for mortality: 500 g/ha, barley plants, after 4 days. On the procedure:
Nezara viridula—Spray Test
as §2, §3, §4
Barley plants (Hordeum vulgare) are sprayed with a test solution containing the desired concentration of the active ingredient and are infested with larvae of the southern green stink bug (Nezara viridula).
After 4 days mortality in % is determined. 100% means all the stink bugs have been killed; 0% means none of the stink bugs have been killed.

For data set [5], the system named is fall armyworm larvae (Spodoptera frugiperda). Nature of the data set: Spodoptera frugiperda spray test (SPODFR). As to conditions: 168 h; for mortality at 100 g/ha: in Zea mays. On the procedure:
Spodoptera frugiperda—Spray Test
(§5) Solvent: 78.0 parts by weight acetone • 1.5 parts by weight dimethylformamide
as §3
(§6) To produce a suitable preparation of active compound, 1 part by weight of active compound is mixed with the stated amount of solvents and is diluted with water, containing an emulsifier concentration of 1000 ppm, to the desired concentration. Further test concentrations are prepared by dilution with emulsifier containing water.
Maize (Zea mays) leaf sections are sprayed with a preparation of the active ingredient of the desired concentration. Once dry, the leaf sections are infested with fall armyworm larvae (Spodoptera frugiperda).
After 7 days mortality in % is determined. 100% means all caterpillars have been killed and 0% means none of the caterpillars have been killed.
Spodoptera frugiperda—Spray Test (SPODFR
After the specified period of time, mortality in % is determined. 100% means all caterpillars have been killed and 0% means none of the caterpillars have been killed.

In data set [6] the test system is adult cat fleas (Ctenocephalides felis). Nature of the data set: Ctenocephalides felis in-vitro contact test, adult cat flea. As to conditions: Ctenocephalides felis; 1 μg/cm^2 (=100 g/ha), after 48 hours; read-out: efficacy (fleas dead or moribund). On the procedure:
Ctenocephalides Felis—In-Vitro Contact Tests Adult Cat Flea
as §1
After the solvent has evaporated, each test tube is filled with 5-10 adult cat fleas (Ctenocephalides felis), closed with a perforated lid and incubated in a lying position at room temperature and relative humidity. After 48 hours efficacy is determined. The fleas are patted on the ground of the tubes and are incubated on a heating plate at 45-50° C. for at most 5 minutes. Immotile or uncoordinated moving fleas, which are not able to escape the heat by climbing upwards, are marked as dead or moribund.
An efficacy of 100% means all fleas are dead or moribund; 0% means no fleas are dead or moribund.

Data set [7] concerns green peach aphid (Myzus persicae). Nature of the data set: Myzus persicae spray test (MYZUPE). As to conditions: 120 h; for mortality at 100 g/ha: in Brassica rapa, foliar. As for the experimental part:
Myzus persicae—Spray Test
as §5, §3, §6
Chinese cabbage (Brassica pekinensis) leaf disks infected with all instars of the green peach aphid (Myzus persicae), are sprayed with a preparation of the active ingredient of the desired concentration.
After 5 days mortality in % is determined. 100% means all aphids have been killed and 0% means none of the aphids have been killed.
Myzus persicae—Spray Test (MYZUPE
After the specified period of time, mortality in % is determined. 100% means all aphids have been killed and 0% means none of the aphids have been killed.

Data set [8] deals with brown planthopper (Nilaparvata lugens). Nature of the data set: Nilaparvata lugens spray test. On the procedure:
Nilaparvata lugens—Spray Test
as §2, §3, §6
Rice plants (Oryza sativa) are sprayed with a preparation of the active ingredient of the desired concentration and the plants are infested with the brown planthopper (Nilaparvata lugens).
After 4 days mortality in % is determined. 100% means all planthoppers have been killed and 0% means none of the planthoppers have been killed.

Regarding `CNC(=O)c1cnc(-n2nc(C)nc2[C@H](C)NC(=O)c2cc(OC(F)(F)F)cc(OC(F)(F)F)c2)cn1` [Example I-034], in data set [1], the pest or weed control at 1 µg/cm2 amounted to 100%. Moreover, in data set [2], the pest or weed control at 1 µg/cm2, 100 g/ha is 80%. In data set [3], the pest or weed control at 32 µg/disc, 100 g/ha worked out at 80%. In data set [4], this compound came in with a mortality at 500 g/ha of 100%. Besides, the mortality at 100 g/ha in data set [5] came out at 100%.
`CNC(=O)c1cnc(-n2nc(C)nc2[C@H](C)NC(=O)c2cc(C(F)(F)F)cc(C(F)(F)F)c2)cn1` [Example I-011]: the pest or weed control at 1 µg/cm2 in data set [1] and in data set [6] was 100% each time. Besides, in data set [2], the pest or weed control at 1 µg/cm2, 100 g/ha came out at 100%. The mortality at 100 g/ha was 90% in data set [7] and 100% in data set [5]. This compound yielded a mortality at 500 g/ha in data set [4] of 100%.
Take `C=C(CC)c1ccc(C2C=CC=C2[C@H](C)CC(=C)c2cc(C)cc(C(C)(C)C)c2)cc1` (stereo partly shown) [I-038 Known from WO2019206799, reference compound]: the Emax at 4 g/ha in data set [7] (MYZUPE, 4 g ai/ha, 5 dat, read-out: % Efficacy) worked out at 0%; in data set [5] (SPODFR, 4 g ai/ha, 7 dat, read-out: % Efficacy) it was 0%. In addition, the Emax at 20 g/ha came to 70% in data set [7] (MYZUPE, 20 g ai/ha, 5 dat, read-out: % Efficacy) and 100% in data set [5] (SPODFR, 20 g ai/ha, 7 dat, read-out: % Efficacy). The Emax at 100 g/ha in data set [7] (MYZUPE, 100 g ai/ha, 5 dat, read-out: % Efficacy) was 100%; in data set [5] (SPODFR, 100 g ai/ha, 7 dat, read-out: % Efficacy), 100%.
`C[C@H](NC(=O)c1cc(OC(F)(F)F)cc(S(C)(=O)=O)c1)c1ncnn1-c1cnc(C(N)=O)cn1` [Example I-028]: the pest or weed control at 1 µg/cm2 in data set [1] was found to be 90%. Also, the pest or weed control at 32 µg/disc, 100 g/ha in data set [3] was determined as 100%. The mortality at 100 g/ha is 90% in data set [7] and 100% in data set [5]. In data set [4], this compound came in with a mortality at 500 g/ha of 100%.
As for `Cc1nc([C@H](C)NC(=O)c2cc(OC(F)(F)F)cc(OC(F)(F)F)c2)n(-c2cnc(C(=O)N(C)C3CC3)cn2)n1` [Example I-031], the pest or weed control at 1 µg/cm2 amounted to 100% in data set [1] and 80% in data set [6]. The compound further had a mortality at 500 g/ha in data set [8] (Nilaparvata lugens, in Oryza sativa, 96 h) of 90%. This compound also came in with a mortality at 100 g/ha in data set [5] of 100%.
With `C[C@H](NC(=O)c1cc(F)cc(OC(F)(F)F)c1)c1ncnn1-c1cnc(C(N)=O)cn1` [Example I-068], the mortality in data set [4] is reported as 90%.
`Cc1nc([C@H](C)NC(=O)c2cc(OC(F)(F)F)cc(OC(F)(F)F)c2)n(-c2cnc(C(N)=O)cn2)n1` [Example I-033]: in data set [3], the pest or weed control at 32 µg/disc, 100 g/ha amounted to 100%. The same compound had a mortality at 500 g/ha in data set [4] of 100%. This compound also showed a mortality at 100 g/ha in data set [5] of 100%.
With `C[C@H](NC(=O)c1cc(C(F)F)nc(C(F)F)c1)c1nc(C2CC2)nn1-c1cnc(C(N)=O)cn1` [Example I-094, 5-[5-[(1S)-1-[[2,6-bis(difluoromethyl)pyridine-4-carbonyl]amino]ethyl]-3-cyclopropyl-1,2,4-triazol-1-yl]pyrazine-2-carboxamide], in data set [3], the pest or weed control at 32 µg/disc, 100 g/ha was 100%. For the same compound, the mortality at 500 g/ha in data set [4] was 100%. In data set [5], this compound displayed a mortality at 100 g/ha of 83%.
For the compound `Cc1nc([C@H](C)NC(=O)c2cc(C(F)(F)F)cc(S(C)(=O)=O)c2)n(-c2cnc(C(N)=O)cn2)n1` [Example I-051], in data set [1], the “efficacy (larvae dead or moribund)” value is on record as 100%. The mortality in data set [4] is listed as 90%.
As for `C[C@H](NC(=O)c1cc(OC(F)(F)F)cc(OC(F)(F)F)c1)c1ncnn1-c1cnc(C(N)=O)cn1` [Example I-029], the pest or weed control at 1 µg/cm2 in data set [1] and in data set [6] was 100% throughout. Besides, the pest or weed control at 1 µg/cm2, 100 g/ha in data set [2] came to 100%. Besides, in data set [5], the mortality at 100 g/ha turned out to be 100%.
In turn, `Cc1nc([C@H](C)NC(=O)c2cc(F)cc(OC(F)(F)F)c2)n(-c2cnc(C(N)=O)cn2)n1` [Example I-069] registered a mortality in data set [8] (500 g/ha, rice plants, after 4 days) of 90%.

Broadly, the mortality is the share of the test organisms that died. Higher therefore signals fewer survivors.
